Measurements as given in patent publication US12043600B2, “Microbiocidal compounds” (SYNGENTA CROP PROTECTION AG, priority 2018, dated 2024).

Key:
[1] = test system: Blumeria graminis f. sp. tritici (Erysiphe graminis f. sp. tritici); assay: Blumeria graminis f. sp. tritici/Wheat/Leaf Disc Preventative (Powdery Mildew on Wheat); assay type: in vivo; conditions: foliar, wheat leaf disc preventative, compared to untreated control
Summary of the method: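 Wheat cv. Kanzler leaf segments on agar sprayed with formulated compound, inoculated with powdery mildew 1 day later and held at 20° C, 60% rh (24 h dark, then 12 h light/12 h dark). Percent disease control versus untreated scored 6-8 days after application.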

[2] = test system: Phaeosphaeria nodorum (Septoria nodorum); assay: Phaeosphaeria nodorum (Septoria nodorum)/Wheat/Leaf Disc Preventative (Glume Blotch); assay type: in vivo; conditions: Parastagonospora nodorum, foliar, wheat leaf disc preventative, compared to untreated control
Summary of the method: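 Wheat cv. Kanzler leaf discs on agar were sprayed with formulated compound diluted in water and inoculated with P. nodorum spores 2 days later. Discs kept at 20 °C, 75% rh, 12 h light/dark; percent disease control versus untreated scored 5–7 days after application.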

[3] = test system: Puccinia recondita f. sp. tritici; assay: Puccinia recondita f. sp. tritici/Wheat/Leaf Disc Curative (Brown Rust); assay type: in vivo; conditions: foliar, wheat leaf disc curative, compared to untreated control
Summary of the method: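 Curative leaf-disc test on wheat cv. Kanzler segments on agar, spore-inoculated and kept dark at 19° C, 75% rh; formulated compound in water applied 1 day after inoculation. Incubated at 19° C, 75% rh, 12 h light/12 h dark; percent disease control versus untreated scored 6-8 days after application.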

Sclerotinia sclerotiorum = assay: Sclerotinia sclerotiorum/Liquid Culture (Cottony Rot); assay type: cell-based; conditions: liquid culture, compared to untreated control
Protocol: Mycelia fragments of a newly grown liquid culture of the fungus are directly mixed into nutrient broth (PDB potato dextrose broth). After placing a (DMSO) solution of test compound into a microtiter plate (96-well format) the nutrient broth containing the fungal material is added.

[4] = test system: Mycosphaerella graminicola (Septoria tritici); assay: Mycosphaerella graminicola (Septoria tritici)/Liquid Culture (Septoria Blotch); assay type: cell-based; conditions: Zymoseptoria tritici; 20 ppm; liquid culture; compared to untreated control
Summary of the method: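 Conidia from cryogenic storage mixed into potato dextrose broth and added to microtiter wells already holding DMSO solutions of test compound. Activity expressed as percentage disease control.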

[5] = test system: Mycosphaerella arachidis (Cercospora arachidicola); assay: Mycosphaerella arachidis (Cercospora arachidicola)/Liquid Culture (Early Leaf Spot); assay type: cell-based; conditions: liquid culture, compared to untreated control
Summary of the method: (§1)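 Test compound dissolved in DMSO is dispensed first; nutrient broth (potato dextrose) carrying conidia thawed from cryogenic storage follows.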

Phytophthora infestans = assay: whole plant or invertebrate; assay type: in vivo; conditions: in Solanum lycopersicum, foliar, read-out: control of Phytophthora infestans
[6] = test system: Monographella nivalis (Microdochium nivale); assay: Monographella nivalis (Microdochium nivale)/Liquid Culture (Foot Rot Cereals); assay type: cell-based; conditions: liquid culture, compared to untreated control
Summary of the method: as §1

[7] = test system: Magnaporthe grisea (Pyricularia oryzae); assay: whole plant or invertebrate; assay type: in vivo; conditions: foliar, read-out: control of Magnaporthe grisea
[8] = test system: Botryotinia fuckeliana (Botrytis cinerea); assay: Botryotinia fuckeliana (Botrytis cinerea)/Liquid Culture (Gray Mould); assay type: cell-based; conditions: liquid culture, compared to untreated control
Protocol: Conidia of the fungus from cryogenic storage are directly mixed into nutrient broth (Vogels broth). After placing a (DMSO) solution of test compound into a microtiter plate (96-well format), the nutrient broth containing the fungal spores is added.

Plasmopara viticola = assay: whole plant or invertebrate; assay type: in vivo; conditions: foliar, read-out: control of Plasmopara viticola
[9] = test system: Puccinia recondita f. sp. tritici; assay: Puccinia recondita f. sp. tritici/Wheat/Leaf Disc Preventative (Brown Rust); assay type: in vivo; conditions: foliar, 200 ppm, wheat leaf disc preventative, compared to untreated control, read-out: control of Puccinia recondita f. sp. tritici
[10] = test system: Glomerella lagenarium (Colletotrichum lagenarium); assay: Glomerella lagenarium (Colletotrichum lagenarium)/Liquid Culture (Anthracnose); assay type: cell-based; conditions: Colletotrichum orbiculare, liquid culture, compared to untreated control
[11] = test system: Thanatephorus cucumeris (Rhizoctonia solani); assay: Thanatephorus cucumeris (Rhizoctonia solani)/Liquid Culture (Foot Rot, Damping-Off); assay type: cell-based; conditions: liquid culture, compared to untreated control
Protocol: Mycelia fragments of a newly grown liquid culture of the fungus are directly mixed into nutrient broth (PDB potato dextrose broth). After placing a (DMSO) solution of the test compounds into a microtiter plate (96-well format), the nutrient broth containing the fungal material is added.

[12] = Photostability assay (Atlas Suntest); assay type: physicochemical; conditions: Suntest 750 W/m^2, spotted on microscope slides
Protocol: The testing method to measure the photostability data of each compound in table is D1 is as specifically described below. The objective of the photostability assay was to determine the stability of the individual test compounds in a strictly controlled and reproducible environment allowing a comparison of their photostability.
Method: Compounds were dissolved in methanol (HPLC grade) to give 1 g/L stock solutions. Compound stock solution (2 μl) was spotted onto microscope slides in a 3D printed holder and put into the Atlas Suntest. The spectral output power of the Suntest was set to 750 W/m^2, which is considered typical of the daily maximum (noon) irradiance level on a very bright British Summer day. At specific time points slides were removed from the Suntest and placed in 4D vials. Wash solvent made up of 50:40:10 H2O:MeCN:THF (1 mL) is then added to the vials and whirlimixed. The resulting solution is then subsampled to an HPLC vial to be analysed. A Waters UPLC system with Photodiode Array was used with a Waters reverse phase column (BEH C18, 100×2.1 mm×1.7 μm) and acetonitrile (HPLC grade) acidified water (0.2% formic acid) mobile phase at a flow rate of 0.6 mL/min. Peak detection was at the optimum wavelength and peak areas were used for quantification
Initial and subsequent measurements of peak area attributable to the test compound were used to provide a % parent remaining at 3 hours.

Pyrenophora teres = assay: Pyrenophora teres/Barley/Leaf Disc Preventative (Net Blotch); assay type: in vivo; conditions: foliar, 200 ppm, barley leaf disc preventative, compared to untreated control, read-out: control of Pyrenophora teres
Summary of the method: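 Formulated compound, diluted in water, sprayed onto barley cv. Hasso leaf segments on agar; spore suspension inoculation followed 2 days after application. Results expressed as percentage disease control.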

Phakopsora pachyrhizi = assay: Phakopsora pachyrhizi/Soybean/Preventative (Soybean Rust); assay type: in vivo; conditions: foliar, 288 h, 200 ppm, soybean leaf disc preventative, compared to untreated control, read-out: control of Phakopsora pachyrhizi

Compound | pest or weed control at 200 ppm [1] [%] | pest or weed control at 200 ppm [2] [%] | pest or weed control at 200 ppm [3] [%] | inhibition of growth at 20 ppm (Sclerotinia sclerotiorum) [%] | inhibition of growth at 20 ppm [4] [%] | inhibition of growth at 20 ppm [5] [%] | pest or weed control at 200 ppm (Phytophthora infestans) [%] | inhibition of growth at 20 ppm [6] [%] | pest or weed control at 200 ppm [7] [%] | inhibition of growth at 20 ppm [8] [%] | pest or weed control at 200 ppm (Plasmopara viticola) [%] | pest or weed control at 200 ppm [9] [%] | inhibition of growth at 20 ppm [10] [%] | inhibition of growth at 20 ppm [11] [%] | melting point [°C] | % Parent Remaining @ 3 hrs [12] [%] | pest or weed control at 200 ppm (Pyrenophora teres) [%] | pest or weed control at 200 ppm (Phakopsora pachyrhizi) [%]
C=C(c1ccn(-c2ccc(C)c(O/C(=C\OC)C(=O)OC)c2)n1)C(F)(F)F [Compound E-24, methyl (Z)-3-methoxy-2-[2-methyl-5-[3-[1-(trifluoromethyl)vinyl]pyrazol-1-yl]phenoxy]prop-2-enoate] | ≥ 80 | ≥ 80 | ≥ 80 | ≥ 80 | ≥ 80 | ≥ 80 | ≥ 80 | ≥ 80 | ≥ 80 | ≥ 80 | ≥ 80 | ≥ 80 | ≥ 80 | ≥ 80 |  |  |  | 
CCCCc1cnn(-c2ccc(C)c(O/C(=C\OC)C(=O)OC)c2)n1 [Compound F-3, methyl (Z)-2-[5-(4-butyltriazol-2-yl)-2-methyl-phenoxy]-3-methoxy-prop-2-enoate] |  | ≥ 80 | ≥ 80 | ≥ 80 | ≥ 80 | ≥ 80 |  | ≥ 80 | ≥ 80 |  | ≥ 80 | ≥ 80 | ≥ 80 |  | 68 to 70 |  |  | 
CO/C=C(\Oc1cc(-n2ccc(C3CCC3)n2)c(F)cc1C)C(=O)OC [Compound E-18, methyl (Z)-2-[5-(3-cyclobutylpyrazol-1-yl)-4-fluoro-2-methyl-phenoxy]-3-methoxy-prop-2-enoate] | ≥ 80 |  | ≥ 80 | ≥ 80 | ≥ 80 | ≥ 80 | ≥ 80 | ≥ 80 | ≥ 80 |  | ≥ 80 | ≥ 80 | ≥ 80 |  |  |  |  | 
CO/C=C(\Oc1cc(-n2ccc(C(F)(F)F)n2)cc(C)c1C)C(=O)OC [Compound E-19, methyl (Z)-2-[2,3-dimethyl-5-[3-(trifluoromethyl)pyrazol-1-yl]phenoxy]-3-methoxy-prop-2-enoate] | ≥ 80 | ≥ 80 |  | ≥ 80 | ≥ 80 | ≥ 80 | ≥ 80 | ≥ 80 | ≥ 80 |  | ≥ 80 | ≥ 80 | ≥ 80 |  | 144 to 146 |  |  | 
CO/C=C(\Oc1cc(-n2ccc(C(F)(F)F)n2)c(F)cc1C)C(=O)OC [Compound E-42, methyl (Z)-2-[4-fluoro-2-methyl-5-[3-(trifluoromethyl)pyrazol-1-yl]phenoxy]-3-methoxy-prop-2-enoate] | ≥ 80 | ≥ 80 | ≥ 80 |  | ≥ 80 | ≥ 80 |  | ≥ 80 | ≥ 80 | ≥ 80 | ≥ 80 | ≥ 80 | ≥ 80 | ≥ 80 | 104 to 108 | 24 | ≥ 80 | 
CO/C=C(\Oc1cc(-n2ccc(C(C)C)n2)cc(C)c1C)C(=O)OC [Compound E-20, methyl (Z)-2-[5-(3-isopropylpyrazol-1-yl)-2,3-dimethyl-phenoxy]-3-methoxy-prop-2-enoate] |  | ≥ 80 | ≥ 80 | ≥ 80 | ≥ 80 | ≥ 80 | ≥ 80 | ≥ 80 | ≥ 80 |  | ≥ 80 | ≥ 80 | ≥ 80 |  | 103 to 105 |  |  | ≥ 50
CO/C=C(\Oc1cc(-n2ncc(C3CCCCC3)n2)ccc1C)C(=O)OC [Compound F-7, methyl (Z)-2-[5-(4-cyclohexyltriazol-2-yl)-2-methyl-phenoxy]-3-methoxy-prop-2-enoate] | ≥ 80 | ≥ 80 | ≥ 80 | ≥ 80 | ≥ 80 | ≥ 80 |  | ≥ 80 | ≥ 80 |  | ≥ 80 | ≥ 80 | ≥ 80 |  | 120 to 122 |  | ≥ 80 | 
CO/C=C(\Oc1cc(-n2ccc(C(F)(F)C(F)(F)F)n2)ccc1C)C(=O)OC [Compound E-69, methyl (Z)-3-methoxy-2-[2-methyl-5-[3-(1,1,2,2,2-pentafluoroethyl)pyrazol-1-yl]phenoxy]prop-2-enoate] | ≥ 80 |  | ≥ 80 | ≥ 80 | ≥ 80 | ≥ 80 |  | ≥ 80 | ≥ 80 |  | ≥ 80 | ≥ 80 | ≥ 80 | ≥ 80 | 117 to 120 |  |  | 
CO/C=C(\Oc1cc(-n2cc(Br)c(C)n2)ccc1C)C(=O)OC [Compound E-117, methyl (Z)-2-[5-(4-bromo-3-methyl-pyrazol-1-yl)-2-methyl-phenoxy]-3-methoxy-prop-2-enoate] | ≥ 80 |  | ≥ 80 | ≥ 80 | ≥ 80 | ≥ 80 |  | ≥ 80 |  |  | ≥ 80 | ≥ 80 | ≥ 80 |  | 120 to 122 |  |  | 
